Data on 19 compounds can be found in patent US7470686B2, “Method of inhibiting the expression and/or the activity of JNK” (Laboratoires Serono SA, priority 1999, dated 2008).

Where a name gives a salt, the structure may show the parent alone.

The target of data set [1] is recombinant, pre-activated GST-JNK3 (Homo sapiens, UniProt P53779). As to the kind of experiment: JNK3 enzyme assay (SPA, GST-c-Jun phosphorylation). The note with it: 2 μM ATP, 120 min at R.T. Format: biochemical. How it is done: (§1) JNK2 and 3 enzyme assay: […] The incubation is performed for 120 min. at R.T and stopped upon addition of 200 μl of a solution containing 250 μg of Streptavidine-coated SPA beads (Amersham, Inc.)*, 5 mM EDTA, 0.1% Triton X-100 and 50 μM ATP, in phosphate saline buffer. After incubation for 60 minutes at RT, beads are sedimented by centrifugation at 1500×g for 5 minutes, resuspended in 200 μl of PBS containing 5 mM EDTA, 0.1% Triton X-100 and 50 μM ATP and the radioactivity measured in a scintillation β counter, following sedimentation of the beads as described above. By substituting GST-c Jun for biotinylated GST-1ATF2 or myelin basic protein, this assay can be used to measure inhibition of preactivated p38 and ERK MAP Kinases, respectively.
Chain of recombinant, pre-activated GST-JNK3 (P53779 whole entry): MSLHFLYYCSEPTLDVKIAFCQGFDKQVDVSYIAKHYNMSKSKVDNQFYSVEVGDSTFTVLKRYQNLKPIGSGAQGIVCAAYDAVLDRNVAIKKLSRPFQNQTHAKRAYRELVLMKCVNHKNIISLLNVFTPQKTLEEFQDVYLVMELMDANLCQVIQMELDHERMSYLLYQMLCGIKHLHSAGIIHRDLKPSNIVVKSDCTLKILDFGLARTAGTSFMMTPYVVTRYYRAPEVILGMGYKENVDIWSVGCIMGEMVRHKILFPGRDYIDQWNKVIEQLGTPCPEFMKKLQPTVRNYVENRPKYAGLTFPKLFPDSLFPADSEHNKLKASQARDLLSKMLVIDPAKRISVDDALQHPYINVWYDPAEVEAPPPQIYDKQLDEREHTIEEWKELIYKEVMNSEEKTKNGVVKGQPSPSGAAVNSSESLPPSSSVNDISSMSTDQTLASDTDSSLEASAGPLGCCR

Data set [2] addresses ERK2 (Homo sapiens, UniProt P28482). As to the kind of experiment: ERK2 enzyme assay (SPA, myelin basic protein substrate). Type of data set: biochemical. As for the experimental part:
as §1

Data set [3] concerns the target recombinant, pre-activated GST-JNK2 (Homo sapiens, UniProt P45984). Nature of the data set: JNK2 enzyme assay (SPA, GST-c-Jun phosphorylation). Format: biochemical. The note with it: 2 μM ATP, 120 min at R.T. How it is done:
as §1

In data set [4] the target is preactivated p38 (Homo sapiens, UniProt Q16539). As to the kind of experiment: p38 enzyme assay (SPA, GST-ATF2 substrate). Format: biochemical. How it is done:
The incubation is performed for 120 min. at R.T and stopped upon addition of 200 μl of a solution containing 250 μg of Streptavidine-coated SPA beads (Amersham, Inc.)*, 5 mM EDTA, 0.1% Triton X-100 and 50 μM ATP, in phosphate saline buffer. After incubation for 60 minutes at RT, beads are sedimented by centrifugation at 1500×g for 5 minutes, resuspended in 200 μl of PBS containing 5 mM EDTA, 0.1% Triton X-100 and 50 μM ATP and the radioactivity measured in a scintillation β counter, following sedimentation of the beads as described above. By substituting GST-c Jun for biotinylated GST-1ATF2 or myelin basic protein, this assay can be used to measure inhibition of preactivated p38 and ERK MAP Kinases, respectively.

The subject of data set [5] is JNK (Hlr c-Jun HeLa cells). Nature of the data set: C-Jun reporter assay. Type of data set: cell-based. The conditions noted are these: Homo sapiens, MEKK1-transfected Hlr c-Jun HeLa cells, luciferase reporter. As for the experimental part:
Hlr c-Jun HeLa cells are cultured in DMEM High Glc supplemented with 10% FCS (Sigma), 2 mM Glutamine (Gibco), P/S, Hygromycin b 100 µg/mL and G418 250 μg/mL
The cells from flasks of near-confluent cultures are detached and disaggregated by treatment with trypsin as described above. The cells are resuspended in culture medium and counted. The cell suspension are diluted with medium to give about 3.5×10^6 cells/mL and […] of cell suspension are put onto 2 10 cm culture dishes containing 9 mL of culture medium. The plates are incubated at 37° C. in a humidified atmosphere of 5% CO2 in air
• Control 0.2 μg pTK Renilla, 5.8 μg pBluescript KS, 500 μl OPTIMEM (GIBCO), 18 μl Fugene 6 • Induced 0.1 μg pMEKK1, 0.2 μg pTK Renilla, 5.7 μg pBluescript KS, 500 μl OPTIMEM (GIBCO), 18 μl Fugene 6 30′ RT
The transfection mixture is added to the plated cells. The plates are incubated over night at 37° C. in a humidified atmosphere of 5% CO2 in air
A 96 wells plate containing 100 μl of culture medium per well is prepared
Compound: 2 μl of Hit compound stock dilution are added to the 100 μl (in triplicate). The transfected cells are trypsinised and re-suspend in 12 mL of culture medium. 100 μl of the dilution are added to each of the 96 wells plate. The plate is incubated over night at 37° C. in a humidified atmosphere of 5% CO2 in air
The medium is removed from the plate and the cells washed two times with 100 μl PBS Completely remove the rinse solution before applying PLB reagent. Dispense into each culture well […] of 1×PLB. Place the culture plates on a rocking platform or orbital shaker with gentle rocking/shaking to ensure complete and even coverage of the cell monolayer with 1×PLB. Rock the culture plates at room temperature for 15 minutes. Transfer 20 μl of the lysate into a white opaque 96 wells plate. Read in a luminometer. • Inject 50 μl of Luciferase Assay Reagent II wait 5″, read 10″ • Inject 50 μl of Stop & Glo® Reagent wait 5″, read 10″ Check RLU Luciferase/RLU Renilla*1000

Chain of recombinant, pre-activated GST-JNK2 (P45984 whole entry): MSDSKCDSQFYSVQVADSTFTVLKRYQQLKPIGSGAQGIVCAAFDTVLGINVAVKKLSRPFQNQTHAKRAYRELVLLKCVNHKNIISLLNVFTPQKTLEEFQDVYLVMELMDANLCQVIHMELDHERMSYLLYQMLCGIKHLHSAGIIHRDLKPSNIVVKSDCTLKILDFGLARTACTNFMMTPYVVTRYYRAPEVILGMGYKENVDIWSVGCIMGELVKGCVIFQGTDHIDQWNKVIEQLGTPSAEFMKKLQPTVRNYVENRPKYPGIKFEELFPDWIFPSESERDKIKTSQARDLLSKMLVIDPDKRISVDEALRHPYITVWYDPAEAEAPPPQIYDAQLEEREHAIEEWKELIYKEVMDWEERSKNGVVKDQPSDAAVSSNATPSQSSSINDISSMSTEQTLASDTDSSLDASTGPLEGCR
Chain of ERK2 (P28482 whole entry, species assumed): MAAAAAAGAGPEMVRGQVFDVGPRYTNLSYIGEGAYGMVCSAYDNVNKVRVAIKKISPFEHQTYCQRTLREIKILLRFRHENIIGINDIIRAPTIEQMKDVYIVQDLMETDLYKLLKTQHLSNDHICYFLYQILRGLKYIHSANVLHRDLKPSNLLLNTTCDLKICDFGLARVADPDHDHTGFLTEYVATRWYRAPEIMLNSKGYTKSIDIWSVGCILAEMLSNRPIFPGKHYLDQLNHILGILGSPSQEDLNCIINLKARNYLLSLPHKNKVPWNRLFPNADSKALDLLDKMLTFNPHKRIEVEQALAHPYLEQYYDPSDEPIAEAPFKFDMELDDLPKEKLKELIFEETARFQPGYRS
Chain of preactivated p38 (Q16539 whole entry): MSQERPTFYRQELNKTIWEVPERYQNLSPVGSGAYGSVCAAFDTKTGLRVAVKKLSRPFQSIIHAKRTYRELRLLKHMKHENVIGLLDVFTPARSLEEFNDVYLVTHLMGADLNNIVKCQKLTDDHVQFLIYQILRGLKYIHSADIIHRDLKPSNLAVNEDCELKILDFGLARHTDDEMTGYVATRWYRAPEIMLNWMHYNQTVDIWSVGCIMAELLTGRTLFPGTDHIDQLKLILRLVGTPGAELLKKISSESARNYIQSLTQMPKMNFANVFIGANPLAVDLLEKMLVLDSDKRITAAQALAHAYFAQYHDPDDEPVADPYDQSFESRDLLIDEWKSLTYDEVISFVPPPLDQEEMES

`N#CC(c1ccnc(NCCc2ccccn2)n1)c1nc2ccccc2s1` (stereo not drawn) (as salt: TFA) [Compound 28, 1,3-benzothiazol-2-yl(2-{[2-(2-pyridinyl)ethyl]amino}-4-pyrimidinyl)acetonitrile]: the melting point is 247 °C (dec.).
Same read-out and setting: under `N#CC(c1ccnc(NCc2ccccn2)n1)c1nc2ccccc2s1` (stereo not drawn) (as salt: TFA) [Compound 29, 1,3-benzothiazol-2-yl{2-[(2-pyridinylmethyl)amino]-4-pyrimidinyl}acetonitrile] stands 250 °C (dec.); under `CN(C)CCCNc1nccc(C(C#N)c2nc3ccccc3s2)n1` (stereo not drawn) (as salt: TFA) [Compound 47, 1,3-benzothiazol-2-yl(2-{[3-(dimethylamino)propyl]amino}pyrimidin-4-yl)acetonitrile], 204 to 205 °C; under `N#CC(c1ccnc(NCCN2CCCCC2)n1)c1nc2ccccc2s1` (stereo not drawn) (as salt: TFA) [Compound 48, 1,3-benzothiazol-2-yl {2-[(2-piperidin-1-ylethyl)amino]pyrimidin-4-yl}acetonitrile], 228 to 230 °C.
On the same count and under the same terms, to `Cn1cncc1CCNc1nccc(C(C#N)c2nc3ccccc3s2)n1` (stereo not drawn) (as salt: TFA) [Compound 49, 1,3-benzothiazol-2-yl(2-{[2-(1-methyl-1H-imidazol-5-yl)ethyl]amino}pyrimidin-4-yl)acetonitrile] belongs 219 to 220 °C.
On to `N#CC(c1ccnc(Cl)n1)c1nc2ccccc2s1` (stereo not drawn) [Compound 1, 1,3-benzothiazol-2-yl(2-chloro-4-pyrimidinyl)-acetonitrile], for which the IC50 was 290 nM in data set [1], over 30000 nM in data set [2] and 500 nM in data set [3].
Regarding `CSc1nccc(C(C#N)c2nc3ccccc3s2)n1` (stereo not drawn) [Compound 4, 1,3-benzothiazol-2-yl[2-(methylsulfanyl)-4-pyrimidinyl]acetonitrile], the IC50 in data set [1] is 350 nM; in data set [2], over 30000 nM; in data set [3] it was 970 nM.
For `N#CC(c1ccnc(NCCc2c[nH]cn2)n1)c1nc2ccccc2s1` (stereo not drawn) [Compound 10, 1,3-benzothiazol-2-yl(2-{[2-(1H-imidazol-4-yl)ethyl]amino}-4-pyrimidinyl)acetonitrile], the IC50 in data set [1] was 70 nM; in data set [4] it was over 30000 nM; in data set [2] it was over 30000 nM; in data set [3] it was 210 nM.
In the case of `CNc1nccc(C(C#N)c2nc3ccccc3s2)n1` (stereo not drawn) [Compound 15, 1,3-benzothiazol-2-yl[2-(methylamino)-4-pyrimidinyl]acetonitrile], the IC50 in data set [1] is 950 nM; in data set [2], over 30000 nM; in data set [3], 2300 nM.
As to `N#CC(c1ccnc(NCCO)n1)c1nc2ccccc2s1` (stereo not drawn) [Compound 23, 1,3-benzothiazol-2-yl {2-[(2-hydroxyethyl)amino]-4-pyrimidinyl}acetonitrile], the IC50 in data set [1] is 510 nM; in data set [4], over 30000 nM; in data set [2], over 30000 nM; in data set [3], 1800 nM.
Turning to `N#CC(c1ccnc(N2CCCC2)n1)c1nc2ccccc2s1` (stereo not drawn) [Compound 26, 1,3-benzothiazol-2-yl[2-(1-pyrrolidinyl)-4-pyrimidinyl]acetonitrile], the melting point is 270 to 272 °C.
On the same count and under the same terms, to `N#CC(c1ccnc(NCCc2ccccc2)n1)c1nc2ccccc2s1` (stereo not drawn) [Compound 27, 1,3-benzothiazol-2-yl {2-[(2-phenylethyl)amino]-4-pyrimidinyl}acetonitrile] belongs 256 °C (dec.).
Consider `N#CC(c1ccnc(NCCc2cccnc2)n1)c1nc2ccccc2s1` (stereo not drawn) [Compound 33, 1,3-benzothiazol-2-yl(2-{[2-(3-pyridinyl)ethyl]amino}-4-pyrimidinyl)acetonitrile], for which the inhibition at 10 µM in data set [5] is over 50%.
For `N#CC(c1ccnc(NCCc2ccc(O)cc2)n1)c1nc2ccccc2s1` (stereo not drawn) [Compound 43, 1,3-benzothiazol-2-yl(2-{[2-(4-hydroxyphenyl)ethyl]amino}pyrimidin-4-yl)acetonitrile], the melting point fell in the range of 258 to 261 °C.
For the compound `N#CC(c1ccnc(OCc2ccccc2)n1)c1nc2ccccc2s1` (stereo not drawn) [Compound 80, 1,3-benzothiazol-2-yl[2-(benzyloxy)pyrimidin-4-yl]acetonitrile], the half-maximal inhibitory concentration (IC50) in data set [1] was 60 nM; in data set [4] it was over 30000 nM; in data set [2], over 30000 nM; in data set [3], 250 nM.
Compound `N#CC(c1ccnc(OCc2ccc(CN3CCOCC3)cc2)n1)c1nc2ccccc2s1` (stereo not drawn) [Compound 93, 1,3-benzothiazol-2-yl(2-{[4-(morpholin-4-ylmethyl)benzyl]oxy}pyrimidin-4-yl)acetonitrile] gave an inhibition at 10 µM in data set [5] of over 50%.
In the case of `N#CC(c1ccnc(OCc2ccc(CN3CCCCC3)cc2)n1)c1nc2ccccc2s1` (stereo not drawn) [Compound 95, 1,3-benzothiazol-2-yl(2-{[4-(piperidin-1-ylmethyl)benzyl]oxy}pyrimidin-4-yl)acetonitrile], the inhibition at 10 µM in data set [5] is over 50%.
On to `COc1ccc(Oc2nccc(C(C#N)c3nc4ccccc4s3)n2)cc1` (stereo not drawn) [Compound 96, 1,3-benzothiazol-2-yl[2-(4-methoxyphenoxy)pyrimidin-4-yl]acetonitrile], for which the half-inhibitory concentration (IC50) in data set [1] was 30 nM; in data set [4] it was over 30000 nM; in data set [2], over 30000 nM; in data set [3] it was 300 nM.
On to `COc1nccc(C(C#N)c2nc3ccccc3s2)n1` (stereo not drawn) [Compound 102, 1,3-benzothiazol-2-yl(2-methoxy-4-pyrimidinyl)-acetonitrile], for which the concentration for half-maximal inhibition (IC50) was 105 nM in data set [1], over 30000 nM in data set [2] and 450 nM in data set [3].
